Molecules are shown by their SMILES. Values after ≈ are worked out from the molar mass of the structure shown.

We go through 13 molecules from patent US20240116926A1, “HETEROAROMATIC COMPOUNDS” (AstraZeneca AB, priority 2022, published 2024).

For data set [1], the target named is TEAD4(217-434) (Homo sapiens (Human), UniProt Q15561). Kind of data set: TEAD4 FRET. To be noted: depalmitoylated, biotinylated TEAD4(217-434), FAM labelled Probe A, 120 min at 25° C. The data set is classed as binding. The method, then: Compounds were dosed with a final DMSO concentration of 1% (v/v). Compound IC50 values were assessed following a 10-point, half-log10 dilution schema starting at 100 μM compound concentration. Specifically, human TEAD protein from TEAD4(217-434) was cloned into an overexpression vector, expressed as an N-terminal HIS-TEV-Avi-tagged fusion protein in E coli, and subsequently purified, then protein was chemically depalmitoylated & biotinylated. The assay was performed in 384-well LV plates (384-well black, medium binding, PS, HIBASE, GREINER #784076) and run in the presence and absence of the compound of interest. Each well of 5 μL assay mixture contained 10 mM Tris-HCl (pH 7.5), 100 mM NaCl, 0.05 mM EDTA, 1 mM TECP, 1% DMSO, 0.03% Pluronic acid F127, 20 nM dePal Avi TEAD4 (217-434)-depalmitoylated & biotinylated protein, 0.8 nM Streptavidin Terbium cryptate (CisBio #610SATLB), 625 nM FAM labelled Probe A. Reactions were incubated at 25° C. for 120 min before reading on a PHERASTAR FSX Plate Reader (337 520 490 HTRF module required) (Supplier BMP).
Sequence of TEAD4(217-434) (Q15561 217-434): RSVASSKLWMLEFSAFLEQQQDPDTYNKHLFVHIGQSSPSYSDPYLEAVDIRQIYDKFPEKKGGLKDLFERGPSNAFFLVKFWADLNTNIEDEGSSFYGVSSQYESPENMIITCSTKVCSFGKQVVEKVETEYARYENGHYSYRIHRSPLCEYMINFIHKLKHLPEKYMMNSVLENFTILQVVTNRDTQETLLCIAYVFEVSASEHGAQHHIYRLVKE
The data file from the PHERAstar FSX contains both the acceptor (520 nm) and donor channels (490 nm) (“Channel A”=acceptor channel (520 nm), “Channel B”=donor channel (490 nm)). The ratio of the donor and acceptor (Channel A/Channel B) is calculated within Genedata Assay Analyzer.
Probe A is 3′,6′-dihydroxy-3-oxo-N-{8-[2-(5-{2-[4-(trifluoromethyl)anilino]phenyl}-2H-tetrazol-2-yl)acetamido]octyl}-3H-spiro[[2]benzofuran-1,9′-xanthene]-5-carboxamide;

Data set [2] in a line: Solubility (thermodynamic, shake-flask). Type of data set: physicochemical. The following applies: thermodynamic from solid; aqueous phosphate buffer (pH 7.4), 24 hours at 25° C. As to the method: The thermodynamic solubility of a research compound is measured under standard conditions. It is a shake-flask approach that uses 10 mM DMSO solutions which are supplied from the Compound Managements liquid store and is a high throughput method. The dried compounds are equilibrated in an aqueous phosphate buffer (pH 7.4) for 24 hours at 25° C., the portion with the dissolved compound is then separated from the remains. The solutions are analyzed and quantified using UPLC/MS/MS, QC-samples are incorporated in each assay-run to ensure the quality of the assay.

The nature of data set [3]: Protein binding measurements in human plasma (Hu PPB). Type of data set: in vitro ADME. To be noted: equilibrium dialysis for 18 hours, fraction unbound. The method, then: The automated equilibrium dialysis assay in human plasma uses the RED (Rapid Equilibrium Dialysis) Device and sample handling. The assay generally runs over two to three days including delivery of results. After dialysis for 18 hours, plasma and buffer samples are prepared for analysis by liquid chromatography and mass spectrometry. Samples are generally tested in singlicates and quantified by LC/MSMS by using a 7-point calibration curve in plasma. The compounds are pooled together in plasma pools up to 10 compounds. Three reference compounds are used in each run, Propranolol, Metoprolol and Warfarin. Warfarin is used as a control in each pool and Propranolol and Metoprolol are placed randomly in each run. An in-house Excel macro is used for preparation of files for the robot and the mass spectrometer and is also used for the calculations of fraction unbound (fu %) in plasma.
For orientation: Equilibrium dialysis compares concentrations on both sides of a semipermeable membrane.

The subject of data set [4] is MCF7-Luciferase cell line. Description: Control reporter (MCF7-Luciferase). To be noted: MCF7-Luciferase cells, luciferase activity after 24 hours. The data set is classed as cell-based. As to the method:
(iii) Control Reporter (MCF7-Luciferase)
MCF7-Luciferase cell line was obtained from […] (catalog number SC050-L) and was maintained in DMEM containing 10% fetal calf serum, 2 mM glutamine. Cells were grown in a humidified incubator at 37° C. with 5% CO2. Cells were distributed to flat bottom white polystyrene TC treated 384 well plates at a density of 3,500 cells/well in 30 μL. Cells were incubated for 24 hours at 37° C. with 5% CO2. Cells were acoustically dosed using an Echo 555, with compounds serially diluted in 100% DMSO. Plates were incubated for an additional 24 hours. Cells were examined for luciferase activity through the addition of 30 μL Bright-Glo luciferase (Promega catalog number E2620). Plates were incubated for 10 minutes at room temperature and luminescence was read using Tecan plate reader. The data obtained with each compound was exported to […] software to perform curve fitting analysis.

The subject of data set [5] is MCF7-Tead cell line. Description: TEAD reporter assay. Type of data set: cell-based. To be noted: MCF7-Tead cells, luciferase activity after 24 hours. The method, then: MCF7-Tead cell line was obtained from BPS BIOSCIENCE (catalog number 60618) and was maintained in DMEM containing 10% fetal calf serum, 2 mM glutamine, and 400 μg/ml G418. Cells were grown in a humidified incubator at 37° C. with 5% CO2. Cells were distributed to flat bottom white polystyrene TC treated 384 well plates at a density of 3,500 cells/well in 30 uL. Cells were incubated for 24 hours at 37° C. with 5% CO2. Cells were acoustically dosed using an Echo 555, with compounds serially diluted in 100% DMSO. Plates were incubated for an additional 24 hours. Cells were examined for luciferase activity through the addition of 30 μL Bright-Glo luciferase (Promega catalog number E2620). Plates were incubated for 10 minutes at room temperature and luminescence was read using Tecan plate reader. The data obtained with each compound was exported to […] software to perform curve fitting analysis.
(In general: Reporter assays use an easily measured gene product as a stand-in for the process of interest.)

As usually defined, the IC50 is the concentration needed to halve the response being measured. A higher IC50 goes with weaker potency in that assay. For orientation: solubility means the concentration that dissolves in the medium under given conditions. Read a low solubility as a poorly soluble substance. As to `C=CC(=O)NCC1(Nc2nnc(-c3ccc(C(F)(F)F)cc3)c3ccccc23)CCC1` [Example 42, N-((1-((4-(4-(trifluoromethyl)phenyl)phthalazin-1-yl)amino)cyclobutyl)methyl)acrylamide], the half-inhibitory concentration (IC50) in data set [1] came out at 0.07 µM; in data set [4], 19.6 µM; in data set [5], 0.672 µM. In addition, in data set [2], the solubility at 24 h worked out at 19 µM (≈ 8.1 µg/mL). Besides, the “Hu PPB (% free)” value in data set [3] was found to be 0.8 % free.
For `C=CC(=O)N1CC[C@H](Nc2ncc(-c3ccc(C(F)(F)F)cc3)c3ncccc23)C1` [Example 39, (S)-1-(3-((8-(4-(trifluoromethyl)phenyl)-1,6-naphthyridin-5-yl)amino)pyrrolidin-1-yl)prop-2-en-1-one], in that order: 0.013 µM, > 31.7 µM, 0.005 µM, 20 µM (≈ 8.25 µg/mL) and 1.4 % free.
For `C=C(F)C(=O)N1C[C@H](F)[C@H](Nc2nnc(-c3ccc(C(F)(F)F)cc3)c3ncccc23)C1` [Example 5, 2-fluoro-1-((3S,4R)-3-fluoro-4-((8-(4-(trifluoromethyl)phenyl)pyrido[2,3-d]pyridazin-5-yl)amino)pyrrolidin-1-yl)prop-2-en-1-one], the results for the IC50 in data set [1], in data set [4] and in data set [5] were 0.027 µM, > 31.7 µM and 0.062 µM, respectively. Also, the solubility at 24 h in data set [2] was found to be 244 µM (≈ 110 µg/mL). Moreover, the “Hu PPB (% free)” value in data set [3] worked out at 7.7 % free.
For `C=CC(=O)N1C[C@@H](Nc2nnc(-c3ccc(C(F)(F)F)cc3)c3ccccc23)C[C@@H]1CO` [Example 47, 1-((2R,4S)-2-(hydroxymethyl)-4-((4-(4-(trifluoromethyl)phenyl)phthalazin-1-yl)amino)pyrrolidin-1-yl)prop-2-en-1-one], in that order: 0.042 µM, 20.7 µM, 0.017 µM, 13 µM (≈ 5.75 µg/mL) and 8.3 % free.
As to `C=CC(=O)N1CC[C@H](Nc2nnc(-c3ccc(C(F)(F)F)cn3)c3ccccc23)C1` [Example 18, (S)-1-(3-((4-(5-(trifluoromethyl)pyridin-2-yl)phthalazin-1-yl)amino)pyrrolidin-1-yl)prop-2-en-1-one], the half-maximal inhibitory concentration (IC50) is 0.2 µM in data set [1], > 31.7 µM in data set [4] and 0.255 µM in data set [5]. In addition, in data set [2], the solubility at 24 h stood at 47 µM (≈ 19.4 µg/mL). Moreover, the “Hu PPB (% free)” value in data set [3] is reported as 10.0 % free.
On the same counts, the results for `C=CC(=O)N1C[C@@H](CO)[C@H](Nc2ncc(-c3ccc(C(F)(F)F)cc3)c3ncccc23)C1` [Example 24, 1-((3R,4S)-3-(hydroxymethyl)-4-((8-(4-(trifluoromethyl)phenyl)-1,6-naphthyridin-5-yl)amino)pyrrolidin-1-yl)prop-2-en-1-one] are 0.023 µM, > 31.7 µM, 0.016 µM, 32 µM (≈ 14.2 µg/mL) and 1.9 % free.
For `C=CC(=O)NC1(CNc2nnc(-c3ccc(C(F)(F)F)cc3)c3ccccc23)CCC1` [Example 41, N-(1-(((4-(4-(trifluoromethyl)phenyl)phthalazin-1-yl)amino)methyl)cyclobutyl)acrylamide], in that order: 0.072 µM, 21.5 µM, 0.152 µM, 72 µM (≈ 30.7 µg/mL) and 0.9 % free.
On the same counts, the results for `C=CC(=O)N1C[C@@H](CO)[C@H](Nc2nnc(-c3ccc(C(F)(F)F)cc3)c3ncccc23)C1` [Example 25, 1-((3R,4S)-3-(hydroxymethyl)-4-((8-(4-(trifluoromethyl)phenyl)pyrido[2,3-d]pyridazin-5-yl)amino)pyrrolidin-1-yl)prop-2-en-1-one] are 0.057 µM, > 31.7 µM, 0.025 µM, 32 µM (≈ 14.2 µg/mL) and 12.0 % free.
In the case of `C=CC(=O)N1C[C@@H](Nc2nnc(-c3ccc(C(F)(F)F)cc3)c3ccccc23)C[C@H]1CO` [Example 48, 1-((2S,4S)-2-(hydroxymethyl)-4-((4-(4-(trifluoromethyl)phenyl)phthalazin-1-yl)amino)pyrrolidin-1-yl)prop-2-en-1-one], the IC50 came out at 0.026 µM in data set [1], 16.1 µM in data set [4] and 0.026 µM in data set [5]. In addition, in data set [2], the solubility at 24 h was determined as 2.4 µM (≈ 1.06 µg/mL). Besides, the “Hu PPB (% free)” value in data set [3] was 5.9 % free.
Turning to `C=CC(=O)N1C[C@@H](CO)[C@H](Nc2ncc(-c3ccc(C(F)(F)F)cc3)c3nccnc23)C1` [Example 27, 1-((3R,4S)-3-(hydroxymethyl)-4-((8-(4-(trifluoromethyl)phenyl)pyrido[3,4-b]pyrazin-5-yl)amino)pyrrolidin-1-yl)prop-2-en-1-one], the 50% inhibitory concentration (IC50) in data set [1] is 0.029 µM; in data set [4], > 31.7 µM; in data set [5], 0.023 µM. Also, the solubility at 24 h in data set [2] was 63 µM (≈ 27.9 µg/mL). Besides, the “Hu PPB (% free)” value in data set [3] is 6.0 % free.
On the same counts, the results for `C=CC(=O)N1CC[C@H](Nc2nnc(-c3ccc(C(F)(F)F)cc3)c3cccnc23)C1` [Example 8, (S)-1-(3-((5-(4-(trifluoromethyl)phenyl)pyrido[2,3-d]pyridazin-8-yl)amino)pyrrolidin-1-yl)prop-2-en-1-one] are 0.056 µM, > 31.7 µM, 0.072 µM, 32 µM (≈ 13.2 µg/mL) and 12.0 % free.
As for `C=CC(=O)N1C[C@@H](CO)[C@H](Nc2nnc(-c3ccc(C(F)(F)F)cc3)c3cccc(F)c23)C1` [Example 15, 1-((3S,4R)-3-((8-fluoro-4-(4-(trifluoromethyl)phenyl)phthalazin-1-yl)amino)-4-(hydroxymethyl)pyrrolidin-1-yl)prop-2-en-1-one], the results for the IC50 in data set [1], in data set [4] and in data set [5] were 0.025 µM, 30.8 µM and 0.015 µM, respectively. Also, the solubility at 24 h in data set [2] turned out to be 135 µM (≈ 62.2 µg/mL). In addition, in data set [3], the “Hu PPB (% free)” value is given as 11.0 % free.
For `C=CC(=O)N[C@H]1CCN(c2nc(-c3ccc(C(F)(F)F)cc3)nc3ccccc23)C1` (racemic) [Comparative Example D, N-(1-{2-[4-(trifluoromethyl)phenyl]-4-quinazolinyl}-3-pyrrolidinyl)acrylamide, reference compound], in that order: 2.9 µM, > 31.7 µM, 1.78 µM, 0.6 µM (≈ 0.247 µg/mL) and 0.2 % free.
